The target of one data set is MKK3 (Homo sapiens, UniProt P46734). Put plainly: MKK3 kinase activity (data not shown). In kind it is biochemical. The note with it: at concentration inhibiting greater than 95% of MK2 activity. The text has this:
A commercial radiometric assay service was used to test the specificity and potency of MMI-0100 ([…]; SEQ ID NO: 1) by measuring its half maximal inhibitory concentrations (IC50). This quantitative assay measures how much MK2 inhibitor (MMI-0100; […] (SEQ ID NO: 1)) is needed to inhibit 50% of a given biological process or component of a process (i.e., an enzyme, cell, or cell receptor). Specifically, in these assays, a positively charged substrate is phosphorylated with a radiolabeled phosphate group from an ATP if the kinase is not inhibited by an inhibitor peptide. The positively charged substrate then is attracted to a negatively charged filter membrane, quantified with a scintillation counter, and compared to a 100% activity control. ATP concentrations within 15 μM of the apparent Km for ATP were chosen since an ATP concentration near the Km may allow for the kinases to have the same relative amount of phosphorylation activity. […]
IC50 values for inhibitor peptides were determined using Millipore's IC50 Profiler Express service. […]
In order to determine the level of specificity for inhibiting MK2, the effect of MMI-0100 ([…]; SEQ ID NO: 1) on other kinases within the MAPK family and within the p38MAPK pathway was evaluated at concentrations of MMI-0100 ([…]; SEQ ID NO: 1) that inhibit greater than 95% of MK2 activity in vitro. […]

In data set [1] the test system is human smooth muscle cell (SMC). Put plainly: Phase contrast morphology, smooth muscle cells. The note with it: 24 hours treatment, vs control cells. The data set is classed as cell-based. As to the method: In order to determine the effect of pharmacological doses of MMI-0100 ([…]; SEQ ID NO: 1) on human endothelial cell (EC) and smooth muscle cell (SMC) proliferation, human EC and SMC cultures were treated with three concentrations (0.25 mM, 0.5 mM, and 1 mM) of MMI-0100 ([…] (SEQ ID NO: 1)) following pre-treatment with TNF-α.

Sequence of MKK3 (P46734 whole entry, species assumed): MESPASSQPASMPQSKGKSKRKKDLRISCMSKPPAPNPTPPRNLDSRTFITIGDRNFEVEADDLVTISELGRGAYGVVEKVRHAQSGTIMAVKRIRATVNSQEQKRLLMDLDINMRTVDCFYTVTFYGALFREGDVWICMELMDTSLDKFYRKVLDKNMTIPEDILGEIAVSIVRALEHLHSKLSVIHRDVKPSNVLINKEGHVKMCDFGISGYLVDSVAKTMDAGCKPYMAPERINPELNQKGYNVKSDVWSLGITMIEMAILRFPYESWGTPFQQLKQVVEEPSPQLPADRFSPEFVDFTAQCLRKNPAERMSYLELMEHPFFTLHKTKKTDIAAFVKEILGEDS

For the sequence YARAAARQARAKALARQLGVAA [MMI-0100], on MKK3, the MKK3 activity result is “no reduction”. Further, the “morphological changes of SMC” value in data set [1] is recorded as “no obvious morphological changes”.

The values are drawn from patent US20110288036A1, “Methods for Treating or Preventing Vascular Graft Failure” (priority 2010, published 2011).
